The values that follow come from patent publication US20080226579A1, “Novel Resinate Complex of S-Clopidogrel and Production Method Thereof” (Chong Kun Dang Pharmaceutical Corp., priority 2005, published 2008).

This series can be described thus: Heat stability test (stress storage at 80° C., clopidogrel content by HPLC). The class given is physicochemical. To be noted: tightly closed container at 80° C., day 3, content of clopidogrel by HPLC. How it is done: Each of the (+)-clopidogrel isomer-resinate complex, so obtained from Examples 1, 2 and 8, including a solid form of (+)-clopidogrel optical isomer-Amberlite complex and (+)-clopidogrel isomer (free base), so obtained from Comparative examples 1 and 2, were put into a tightly closed container at 80° C. to determine the contents of clopidogrel in the baseline, day 1 and day 3 by HPLC analysis in accordance with a content uniformity test of the U.S. Pharmacopoeia.
(HPLC Analysis) • Column: ULTRON ES-OVM chiral 5 ? , 4.6×250 mm • Mobile phase: 0.01 M potassium dihydrogen phosphate solution/acetonitrile 75:25 • Flow rate: 1 mL/min • Column temperature: Room temperature • Detector: Ultraviolet absorption spectrophotometer (detection wavelength: 220 nm) • Injection volume: 10 ?

`COC(=O)[C@H](c1ccccc1Cl)N1CCc2sccc2C1` [(+)-clopidogrel isomer (free base), methyl(+)-(S)-(2-chlorophenyl)(6,7-dihydro-4H-thieno[3,2-c]pyridine-5-yl)acetate]: the “decrease in content at day 3” value stood at 70%.
